{"source": "patent US20130251783A1", "about": "“LIPOSOMES CONTAINING PERMEATION ENHANCERS FOR ORAL DRUG DELIVERY” (Universitat Heidelberg, priority 2011, published 2013)", "key": {"Caco-2 cells [1]": {"test_system": "Caco-2 cells", "conditions": "cited from earlier work"}, "Caco-2 cells [2]": {"test_system": "Caco-2 cells", "assay": "Alamar Blue cytotoxicity assay", "assay_type": "cell-based", "procedure": "(§1) Caco-2 cells were grown in T-75 flasks in Dulbecco's modified Eagle's medium (DMEM) supplemented with 10% FBS, 1% non-essential amino acids, 1% pyruvate, 1% L-glutamine, 100 U/ml penicillin and 100 μg/ml streptomycin at 37° C. in an atmosphere with 5% CO2 and in equilibrium with distilled water. The medium was changed every other day, and the cells were subcultured at 80% confluency. Cells were used in the experiments described below.\n(§2) Cytotoxicity of liposomes and bio-enhancer solutions was investigated using the Alamar Blue® assay (AbD Serotec, Oxford, UK) and by determination of the release of lactate dehydrogenase (LDH) with a test kit (Sigma-Aldrich, Taufkirchen, Germany). […] The formed NADH in turn reduces a tetrazolium salt to a red-coloured product which can be determined photometrically. […]\nIn terms of the Alamar Blue® assay, groups of eight wells were incubated with the solutions of the bio-enhancers in five concentrations (1 μM, 10 μM, 100 μM, 1 mM and 10 mM) and the liposomal formulations in three concentrations (0.5 mM, 5 mM and 50 mM total lipid) in KRB for 2, 4, and 8 h at 37° C. […] After 4 h at 37° C., the colour change of the dye was determined at an excitation wavelength of 530 nm and an emission wavelength of 590 nm in a Fluoroskan Ascent® plate reader. […] Cell viability was expressed as follows: […]"}, "Caco-2 cells [3]": {"test_system": "Caco-2 cells", "assay": "LDH release cytotoxicity assay", "assay_type": "cell-based", "conditions": "free solution, all concentrations (likely inhibition of the enzymatic reaction)", "procedure": "as §1, §2\nFor the LDH release assay, cells were treated similar as described for the Alamar Blue® cytotoxicity assay with little changes. […] The reaction was stopped by the addition of 10 μl 1N HCl and subsequently, the colour change of the dye was measured by a Tecan microplate absorbance reader (Sunrise, Tecan, Grodig, Austria) at a wavelength of 490 nm and a reference wavelength of 700 nm. To eliminate the influence of the liposomes and the bio-enhancers on the absorbance, a blank was measured of the formulations with a concentration equal to the final assay concentration. […]"}, "rats [4]": {"test_system": "rats", "conditions": "cited from earlier work"}, "rabbits": {"test_system": "rabbits", "conditions": "cited from earlier work"}, "rats [5]": {"test_system": "rats", "conditions": "rats fed daily around 37.7 mg/kg for two years; cited from earlier work"}}, "data": [{"smiles": "C[C@H](CCC(=O)N(C)CC(=O)O)[C@H]1CC[C@H]2[C@@H]3[C@H](O)C[C@@H]4C[C@H](O)CC[C@]4(C)[C@H]3C[C@H](O)[C@]12C", "note": "[CS, cholylsarcosine]", "values": [{"measurement": "Cytotoxicity in WST-1 transformation assay", "setting": "Caco-2 cells [1]", "result": "no cytotoxicity"}]}, {"smiles": "CCCCCCCCCCCCCCCC[n+]1ccccc1", "note": "[CpCl, cetylpyridinium chloride]", "values": [{"measurement": "Toxicity compared among the investigated enhancers", "setting": "Caco-2 cells [2]; Caco-2 cells", "result": "most toxic"}, {"measurement": "Cytotoxicity (cell viability)", "setting": "Caco-2 cells [2]; free enhancer in KRB, concentration 1 mM", "result": "strong cytotoxicity"}, {"measurement": "LDH release compared to incubation with KRB", "setting": "Caco-2 cells [3]", "result": "lower as the release after incubation with KRB"}, {"measurement": "LD50", "setting": "rats [4]", "result": 200, "unit": "mg/kg"}, {"measurement": "LD50", "setting": "rabbits", "result": 400, "unit": "mg/kg"}]}, {"smiles": "CCCCCCCCCCCCCCCCCCN", "note": "[SA, stearylamine]", "values": [{"measurement": "Side effects", "setting": "rats [5]", "result": "without causing any side effects"}]}]}
